Measurements as given in patent US20210017193A1, “CONDENSED BICYCLIC HETEROCYCLIC DERIVATIVES AS PEST CONTROL AGENTS” (Bayer Aktiengesellschaft, priority 2018, published 2021).
One block for each molecule: values may come before it.

Columns and labels:
[1] = log P determination by HPLC on reversed-phase column (C18), acidic range; format: physicochemical; details: LC-UV, formic acid in water/acetonitrile
Procedure: log P Values The log P values were determined according to EEC Directive 79/831 Annex V.A8 by HPLC (high-performance liquid chromatography) on a reversed-phase column (C18) using the following methods: ^[a] […] Calibration was carried out using a homologous series of straight-chain alkan-2-ones (having 3 to 16 carbon atoms) with known log P values. The values between successive alkanones are determined by linear regression.

[2] = tested on: Ctenocephalides felis; test: Ctenocephalides felis oral test; format: in vivo; details: 100 ppm in citrated cattle blood, adult cat fleas, after 2 days
Procedure: Ctenocephalides felis—Oral Test
Solvent: dimethyl sulfoxide
To produce a suitable active compound formulation, 10 mg of active compound are mixed with 0.5 ml of dimethyl sulfoxide. Dilution with citrated cattle blood gives the desired concentration.
About 20 unfed adult cat fleas (Ctenocephalidesfelis) are placed into a chamber which is closed at the top and bottom with gauze. A metal cylinder whose bottom end is closed with parafilm is placed onto the chamber. The cylinder contains the blood/active compound formulation, which can be imbibed by the fleas through the parafilm membrane.
After 2 days, the kill in % is determined. 100% means that all of the fleas have been killed; 0% means that none of the fleas have been killed.

[3] = tested on: Spodoptera frugiperda; test: Spodoptera frugiperda spray test; format: in vivo; details: 100 g/ha, maize leaf discs, after 7 days
Procedure: Spodoptera frugiperda—Spray Test
(§1) Solvent: 78.0 parts by weight of acetone • • 1.5 parts by weight of dimethylformamide
(§2) Emulsifier: alkylaryl polyglycol ether
(§3) To produce a suitable active compound preparation, 1 part by weight of active compound is dissolved using the stated parts by weight of solvent and made up with water containing an emulsifier concentration of 1000 ppm until the desired concentration is attained. To produce further test concentrations, the formulation is diluted with emulsifier-containing water.
Leaf discs of maize (Zea mays) are sprayed with an active compound formulation of the desired concentration and, after drying, populated with caterpillars of the fall armyworm (Spodopterafrugiperda).
After 7 days, the efficacy in % is determined. 100% means that all the caterpillars have been killed; 0% means that no caterpillar has been killed.

[4] = tested on: Boophilus microplus; test: Boophilus microplus injection test; format: in vivo; details: 20 μg/animal, injection into engorged adult female cattle ticks, assessed after 7 days
Procedure: Boophilus microplus—Injection Test Solvent: dimethyl sulfoxide To produce a suitable active compound formulation, 10 mg of active compound are mixed with 0.5 ml of solvent and the concentrate is diluted to the desired concentration with solvent. 1 μl of the active compound solution is injected into the abdomen of 5 engorged adult female cattle ticks (Boophilus microplus). The animals are transferred into dishes and kept in a climate-controlled room. Efficacy is assessed after 7 days by laying of fertile eggs. Eggs which are not visibly fertile are stored in a climate-controlled cabinet until the larvae hatch after about 42 days. An efficacy of 100% means that none of the ticks has laid any fertile eggs; 0% means that all the eggs are fertile.

[5] = tested on: Myzus persicae; test: Myzus persicae oral test; format: in vivo; details: 120 h, oral uptake from microtitre plates, after 5 days, read-out: efficacy (aphids killed)
Procedure: Myzus persicae—Oral Test Solvent: 100 parts by weight of acetone To produce a suitable preparation of active compound, 1 part by weight of active compound is dissolved using the specified parts by weight of solvent and made up with water until the desired concentration is attained. 50 μl of the active compound preparation are transferred into microtitre plates and made up to a final volume of 200 μl with 150 μl of IPL41 insect medium (33%+15% sugar). Subsequently, the plates are sealed with parafilm, which a mixed population of green peach aphids (Myzus persicae) within a second microtitre plate is able to puncture and imbibe the solution through. After 5 days, the efficacy in % is determined. 100% means that all the aphids have been killed; 0% means that no aphids have been killed.

[6] = tested on: Phaedon cochleariae; test: Phaedon cochleariae spray test; format: in vivo; details: 100 g/ha, Chinese cabbage leaf discs, after 7 days
Procedure: Phaedon cochleariae—Spray Test
as §1, §2, §3
Discs of Chinese cabbage leaves (Brassica pekinensis) are sprayed with an active compound formulation of the desired concentration and, after drying, populated with larvae of the mustard beetle (Phaedon cochleariae).
After 7 days, the efficacy in % is determined. 100% means that all the beetle larvae have been killed; 0% means that no beetle larvae have been killed.

[7] = tested on: Meloidogyne incognita; test: Meloidogyne incognita test; format: in vivo; details: 20 ppm, lettuce in sand, after 14 days
Procedure: Meloidogyne incognita test Solvent: 125.0 parts by weight of acetone To produce a suitable active compound formulation, 1 part by weight of active compound is mixed with the stated amount of solvent and the concentrate is diluted to the desired concentration with water. Vessels are filled with sand, active compound solution, an egg/larvae suspension of the southern root-knot nematode (Meloidogyne incognita) and lettuce seeds. The lettuce seeds germinate and the plants develop. The galls develop on the roots. After 14 days, the nematicidal efficacy in % is determined by the formation of galls. 100% means that no galls were found; 0% means that the number of galls on the treated plants corresponds to the untreated control.

[8] = tested on: Myzus persicae; test: Myzus persicae spray test; format: in vivo; details: foliar, 120 h, Chinese cabbage leaf discs, after 5 days, read-out: efficacy (aphids killed)
Procedure: Myzus persicae—Spray Test Solvent: 78 parts by weight of acetone • • 1.5 parts by weight of dimethylformamide Emulsifier: alkylaryl polyglycol ether To produce a suitable active compound preparation, 1 part by weight of active compound is dissolved using the stated parts by weight of solvent and made up with water containing an emulsifier concentration of 1000 ppm until the desired concentration is attained. To produce further test concentrations, the formulation is diluted with emulsifier-containing water. Discs of Chinese cabbage leaves (Brassica pekinensis) infested by all stages of the green peach aphid (Myzus persicae) are sprayed with an active compound formulation of the desired concentration. After 5 days, the efficacy in % is determined. 100% means that all the aphids have been killed; 0% means that no aphids have been killed.

[9] = tested on: Diabrotica balteata; test: Diabrotica balteata spray test; format: in vivo; details: 160 μg/cavity, sprayed germinated wheat grains, beetle larvae, after 7 days
Procedure: Diabrotica balteata—Spray Test Solvent: 78 parts by weight of acetone • • 1.5 parts by weight of dimethylformamide Emulsifier: alkylaryl polyglycol ether To produce a suitable active compound preparation, 1 part by weight of active compound is dissolved using the stated parts by weight of solvent and made up with water containing an emulsifier concentration of 1000 ppm until the desired concentration is attained. To produce further test concentrations, the formulation is diluted with emulsifier-containing water. Pre-swollen wheat grains (Triticum aestivum) are incubated in a multiwell plate filled with agar and a little water for one day (5 seed grains per cavity). The germinated wheat grains are sprayed with an active compound preparation of the desired concentration. Subsequently, each cavity is infected with 10-20 beetle larvae of Diabrotica balteata. After 7 days, the efficacy in % is determined. 100% means that all wheat plants have grown as in the untreated, uninfected control; 0% means that no wheat plant has grown.

[10] = tested on: Tetranychus urticae; test: Tetranychus urticae spray test, OP-resistant; format: in vivo; details: 100 g/ha, bean leaf discs, after 6 days
Procedure: Tetranychus urticae—Spray Test, OP-Resistant
as §1, §2, §3
Discs of bean leaves (Phaseolus vulgaris) infested with all stages of the greenhouse red spider mite (Tetranychus urticae) are sprayed with an active compound formulation of the desired concentration.
After 6 days, the efficacy in % is determined. 100% means that all the spider mites have been killed; 0% means that no spider mites have been killed.

SMILES: CCS(=O)(=O)c1c(-c2nc3cc(C(F)(F)F)n(C)c(=O)c3n2C)nc2n1CC(C)CC2 (centres unmarked) [Example I-04]
pest or weed control at 4 ppm [5]: 100%
pest or weed control at 100 g/ha [8]: 100%

SMILES: CCS(=O)(=O)c1c(-c2nc3cc(C(F)(F)F)n(C)c(=O)c3n2C)nc2n1CCC(C)C2 (centres unmarked) [Example I-05]
nematicidal efficacy (formation of galls) [7]: 90%
pest or weed control at 4 ppm [5]: 100%
pest or weed control at 100 g/ha [8]: 100%

SMILES: CCS(=O)(=O)c1c(-c2nc3cc(C(F)(F)F)n(C)c(=O)c3n2C)nc2n1CCC(C(F)(F)F)C2 (centres unmarked) [Example I-06]
efficacy (caterpillars killed) [3]: 100%
pest or weed control at 4 ppm [5]: 100%
efficacy [9]: 100%

SMILES: CCS(=O)(=O)c1c(-c2nc3cc(C(F)(F)F)n(C)c(=O)c3n2C)nc2cc(C(F)(F)C3CC3)ccn12 [Example I-07]
efficacy (caterpillars killed) [3]: 100%
pest or weed control at 4 ppm [5]: 100%
efficacy [9]: 100%

SMILES: CCS(=O)(=O)c1c(-c2nc3cc(C(F)(F)F)n(C)c(=O)c3n2C)nc2cc(C(=O)C3CC3)ccn12 [Example I-08]
efficacy (caterpillars killed) [3]: 100%
pest or weed control at 4 ppm [5]: 100%
efficacy [9]: 100%
pest or weed control at 100 g/ha [8]: 90%

SMILES: CCS(=O)(=O)c1c(-c2nc3cc(C(F)(F)F)n(C)c(=O)c3n2C)nc2n1CCC(C)C2C (centres unmarked) [Example I-09]
efficacy (spider mites killed) [10]: 90%
pest or weed control at 4 ppm [5]: 100%
efficacy [9]: 100%
pest or weed control at 100 g/ha [8]: 90%

SMILES: CCS(=O)(=O)c1c(-c2nc3cc(C(F)(F)F)n(C)c(=O)c3n2C)nc2n1CCCC2C (centres unmarked) [Example I-11]
pest or weed control at 4 ppm [5]: 100%
efficacy [9]: 100%
pest or weed control at 100 g/ha [8]: 90%

Now from value to molecule, other results behind:

chromatographic logP [1]: 3.14
SMILES: Cn1c(C(F)(F)F)cc2nc(-c3nc4n(c3Br)CCC(C)(C)C4)n(C)c2c1=O [2-(3-Bromo-7,7-dimethyl-6,8-dihydro-5H-imidazo[1,2-a]pyridin-2-yl)-3,5-dimethyl-6-(trifluoromethyl)imidazo[4,5-c]pyridin-4-one]

chromatographic logP [1]: 0.67
SMILES: CC1(C)CCn2c(nc(C(=O)O)c2Br)C1 [3-Bromo-7,7-dimethyl-6,8-dihydro-5H-imidazo[1,2-a]pyridine-2-carboxylicacid]

chromatographic logP [1]: 3.2
SMILES: CCS(=O)(=O)c1c(-c2nc3cc(C(F)(F)F)n(C)c(=O)c3n2C)nc2cc(C(F)(F)F)ccn12 [Example I-01, 2-[3-(Ethylsulfonyl)-7-(trifluoromethyl)imidazo[1,2-a]pyridin-2-yl]-3,5-dimethyl-6-(trifluoromethyl)-3,5-dihydro-4H-imidazo[4,5-c]pyridin-4-one]
efficacy (kill in %) [2]: 95%
efficacy (caterpillars killed) [3]: 100%
efficacy (laying of fertile eggs) [4]: 100%
pest or weed control at 4 ppm [5]: 100%

chromatographic logP [1]: 2.59
SMILES: CCS(=O)(=O)c1c(-c2nc3cc(C(F)(F)F)n(C)c(=O)c3n2C)nc2cc(C3(C#N)CC3)ccn12 [Example I-02, 1-{2-[3,5-Dimethyl-4-oxo-6-(trifluoromethyl)-4,5-dihydro-3H-imidazo [4,5-c]pyridin-2-yl]-3-(ethylsulfonyl)imidazo[1,2-a]pyridin-7-yl}cyclopropanecarbonitrile]
efficacy (beetle larvae killed) [6]: 100%
nematicidal efficacy (formation of galls) [7]: 100%
efficacy (kill in %) [2]: 100%
efficacy (caterpillars killed) [3]: 100%
pest or weed control at 4 ppm [5]: 100%
pest or weed control at 100 g/ha [8]: 100%

chromatographic logP [1]: 2.03
SMILES: CCS(=O)(=O)c1c(-c2nc3cc(C(F)(F)F)n(C)c(=O)c3n2C)nc2n1CCCC2 [Example I-03, 2-[3-(Ethylsulfonyl)-5,6,7,8-tetrahydroimidazo[1,2-a]pyridin-2-yl]-3,5-dimethyl-6-(trifluoromethyl)-3,5-dihydro-4H-imidazo[4,5-c]pyridin-4-one]
pest or weed control at 4 ppm [5]: 100%
pest or weed control at 100 g/ha [8]: 90%

chromatographic logP [1]: 2.66
SMILES: CCS(=O)(=O)c1c(-c2nc3cc(C(F)(F)F)n(C)c(=O)c3n2C)nc2n1CCC(C)(C)C2 [Example I-10, 2-(3-Ethylsulfonyl-7,7-dimethyl-6,8-dihydro-5H-imidazo[1,2-a]pyridin-2-yl)-3,5-dimethyl-6-(trifluoromethyl)imidazo[4,5-c]pyridin-4-one]
pest or weed control at 4 ppm [5]: 100%
efficacy [9]: 100%
pest or weed control at 100 g/ha [8]: 90%

chromatographic logP [1]: 2.59
SMILES: CCS(=O)(=O)c1c(-c2nc3cc(C(F)(F)F)n(C)c(=O)c3n2C)nc2cc(S(=O)(=O)C3CC3)ccn12 [Example I-12, 2-[7-(Cyclopropylsulfonyl)-3-(ethylsulfonyl)imidazo[1,2-a]pyridin-2-yl]-3,5-dimethyl-6-(trifluoromethyl)-3,5-dihydro-4H-imidazo[4,5-c]pyridin-4-one]
efficacy (caterpillars killed) [3]: 100%
pest or weed control at 4 ppm [5]: 100%
efficacy [9]: 100%
